18 compounds from BindingDB's records for patent WO2022103411 (Genentech, 2022) can be followed below.

Molecules are shown by their SMILES. pIC50: −log10 of the molar value.

T1 sequence (P40337 whole entry): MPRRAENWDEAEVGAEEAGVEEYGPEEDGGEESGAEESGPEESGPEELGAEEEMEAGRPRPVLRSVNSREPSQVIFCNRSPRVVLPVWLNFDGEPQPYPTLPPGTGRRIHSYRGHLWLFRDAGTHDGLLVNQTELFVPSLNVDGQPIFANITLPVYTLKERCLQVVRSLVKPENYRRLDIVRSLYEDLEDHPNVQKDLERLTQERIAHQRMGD

The first assay has as its target T1, von Hippel-Lindau disease tumor suppressor (Homo sapiens, UniProt P40337). The assay can be described thus: VHL HEK-293 BRET Assay.
Procedure: The VHL NanoBRET Target Engagement Assay analyzes the apparent affinity of test compounds for VHL in cells by competitive displacement of a VHL NanoBRET tracer reversibly bound to a NanoLuc VHL fusion protein stably expressed in the cells. […] 50 nL of control compound (lOmM; parental unlabeled VHL antagonist; see structure below) and 50 nL of DMSO (negative control) were dispensed into the appropriate control wells. DMSO was backfilled to a final volume of 50 nL as required. […] Max Signal control wells consisted of DMSO only treated wells. Minimum Signal control wells contained of 10 uM parental unlabeled VHL antagonist (control compound - see structure below). […] Background Signal control wells were prepared without tracer for background correction steps. […] The raw BRET ratio values were calculated by dividing the acceptor emission value (610 nm) by the donor emission value (460nm) for each sample. To correct for background, the BRET ratio in the absence of tracer (average of no-tracer control samples) was subtracted from the BRET ratio of each sample. Raw BRET units were converted to milliBRET units (mBU) by multiplying each raw BRET value by 1,000. The normalized NanoBRET signal was calculated relative to the Max Signal control wells (DMSO treated control wells) and the Minimum Signal control wells. Percentage inhibition was calculated relative to the Minimum Signal control and Maximum Signal control wells. IC50 values were derived by four parameter curve fitting using the Robust method.
For the compound `Cc1ncsc1-c1ccc(CNC(=O)C2C[C@H](O)CN2C(=O)[C@@H](n2cc(C3(c4cn([C@H](C(=O)N5C[C@H](O)C[C@H]5C(=O)NCc5ccc(-c6scnc6C)cc5)C(C)(C)C)nn4)CC3)nn2)C(C)(C)C)cc1` (stereo not given in full) [WO2022103411, Compound 31], the pIC50 was 6.51.
The same measure, in the same setting: then `COC(=O)c1nnn([C@H](C(=O)N2C[C@H](O)C[C@H]2C(=O)N[C@H](Cc2ccc(-c3ccccc3)cc2)C(N)=O)C(C)C)c1C` [WO2022103411, Compound 34], with 5.20; and `COC(=O)c1nnn([C@@H](C(=O)N2C[C@H](O)C[C@H]2C(=O)N[C@H](Cc2ccc(-c3ccccc3)cc2)C(N)=O)C(C)C)c1C` [WO2022103411, Compound 35], with 5.79; and `CC(C)[C@@H](C(=O)N1C[C@H](O)C[C@H]1C(=O)N[C@H](Cc1ccc(-c2ccccc2)cc1)C(N)=O)n1nnc2ccccc21` [WO2022103411, Compound 38], with 6.52.
Take `Cc1ncsc1-c1ccc2c(c1)CCCC[C@@H]2NC(=O)[C@@H]1C[C@@H](O)CN1C(=O)[C@@H](n1cc(C2CC2)nn1)C(C)(C)C` [WO2022103411, Compound 52]: the negative-log IC50 (pIC50) was greater than 8.30.
With `Cc1ncsc1-c1ccc2c(c1)CCCC[C@H]2NC(=O)[C@@H]1C[C@@H](O)CN1C(=O)[C@@H](n1cc(C2CC2)nn1)C(C)(C)C` [WO2022103411, Compound 53], the negative-log IC50 (pIC50) was 6.70.
The same measure, in the same setting: then `CC(C)(C)[C@@H](C(=O)N1C[C@H](O)CC1C(=O)N[C@H](Cc1ccc(-c2ccccc2)cc1)C(N)=O)n1cc(C2CC2)nn1` (stereo not given in full) [WO2022103411, Example S3], with 6.82; and `NC(=O)[C@@H](Cc1ccc(-c2ccccc2)cc1)NC(=O)C1C[C@@H](O)CN1C(=O)[C@H](C1CCC1)n1cc(C2CC2)nn1` (stereo not given in full) [WO2022103411, Example S4], with 6.72.
As for `CCC(C)[C@@H](C(=O)N1C[C@H](O)CC1C(=O)N[C@H](Cc1ccc(-c2ccccc2)cc1)C(N)=O)n1cc(C2CC2)nn1` (stereo not given in full) [WO2022103411, Example S5], the negative logarithm of the IC50 (pIC50) is 6.89.
As to `CCC(C)(C)[C@@H](C(=O)N1C[C@H](O)CC1C(=O)N[C@H](Cc1ccc(-c2ccccc2)cc1)C(N)=O)n1cc(C2CC2)nn1` (stereo not given in full) [WO2022103411, Example S6], the pIC50 is 7.00.
`C=CC(C)(C)[C@@H](C(=O)N1C[C@H](O)CC1C(=O)N[C@H](Cc1ccc(-c2ccccc2)cc1)C(N)=O)n1cc(C2CC2)nn1` (stereo not given in full) [WO2022103411, Example S7] had a negative logarithm of the IC50 (pIC50) of 6.96.
Take `CC(=O)NCCOCc1cn([C@H](C(=O)N2C[C@H](O)CC2C(=O)N[C@H](Cc2ccc(-c3ccccc3)cc2)C(N)=O)C(C)(C)C)nn1` (stereo not given in full) [WO2022103411, Example S14]: the pIC50 was 4.68.
Same read-out and setting: under `Cc1ncsc1-c1ccc([C@H](C)NC(=O)C2C[C@@H](O)CN2C(=O)[C@H](C2C3CC4CC(C3)CC2C4)n2cc(C3CC3)nn2)cc1` (stereo not given in full) [WO2022103411, Example S20] stands greater than 8.30.
As for `CCC(C)(C)[C@@H](C(=O)N1C[C@H](O)C[C@H]1C(=O)N[C@@H](C)c1ccc(-c2scnc2C)cc1)n1cc(C2CC2)nn1` [WO2022103411, Example S21], the negative-log IC50 (pIC50) was greater than 8.30.
In the case of `Cc1ncsc1-c1ccc(C(C)NC(=O)C2C[C@@H](O)CN2C(=O)[C@H](C2C3CC4CC(C3)CC2C4)n2cc(C3CC3)nn2)c(Cl)c1` (stereo not given in full) [WO2022103411, Example S23], the pIC50 is 7.70.
On the same count and under the same terms, under `Cc1ncsc1-c1ccc(CNC(=O)[C@@H]2C[C@@H](O)CN2C(=O)[C@@H](n2cc(C3CC3)nn2)C(C)(C)C)cc1` [WO2022103411, Example S24] stands 8.00; under `Cc1ncsc1-c1ccc(CNC(=O)[C@@H]2C[C@@H](O)CN2C(=O)[C@H](C2CCCCC2)n2cc(C3CC3)nn2)cc1` [WO2022103411, Example S25], greater than 8.30.
Same read-out and setting: under `Cc1ncsc1-c1ccc(CNC(=O)[C@@H]2C[C@@H](O)CN2C(=O)[C@@H](n2cc(Cc3ccccc3)nn2)C(C)(C)C)cc1` [WO2022103411, Example S27] stands 7.70.

In a further assay the target is T1, von Hippel-Lindau disease tumor suppressor. The assay can be described thus: Fluorescence Polarization (FP) VHL Binding Assay. In general terms: In fluorescence polarisation assays a small probe gives low polarisation when free and higher when bound to something large.
Procedure: The binding of test compounds to the VHL Elongin B/C complex was measured using a fluorescence polarization tracer competition assay. […] A VHL fluorescence polarization probe consisted of a VHL ligand coupled to carboxytetramethylrhodamine (TAMRA); (2S,4R)-N-(2-(2-(3',6'-bis(dimethylamino)-3-oxo-3H-spiro[isobenzofuran-l,9'-xanthene]-5-carboxamido)ethoxy)-4-(4-methylthiazol-5-yl)benzyl)-4-hydroxy-l-((R)-3-methyl-2-(3-methylisoxazol-5-yl)butanoyl)pyrrolidine-2-carboxamide. […] DMSO was dispensed into wells designated for “VHL control” (without compound) wells. The “Assay Buffer” consisted of 50 mM Tris pH 8.0, 120 mM NaCl, 0.005% Nonidet P-40, and 1% DMSO (v/v). […] Assay Buffer was also dispensed into “no VHL control” wells using the same method. […] “Post-assay” fluorescence polarization measurements were made as described for the “pre-assay” fluorescence measurement. Fluorescence polarization was calculated for each sample; taking into account the “pre-assay” fluorescence measurements and subtracting the fluorescence signal of the compound/VHL only (“pre-assay”) measurements from the “post-assay” fluorescence polarization measurements, for each plane of polarization. The data were analyzed using Genedata Screener software and normalized to the “no VHL control” and “VHL control” (without compound). IC50 values were calculated using a four parameter curve fit (Robust method).
Turning to `CC(C)(C)[C@@H](C(=O)N1C[C@H](O)CC1C(=O)N[C@H](Cc1ccc(-c2ccccc2)cc1)C(N)=O)n1cc(C2CC2)nn1` (stereo not given in full) [WO2022103411, Example S3], the pIC50 was 6.82.
Same read-out and setting: then `CC(=O)NCCOCc1cn([C@H](C(=O)N2C[C@H](O)CC2C(=O)N[C@H](Cc2ccc(-c3ccccc3)cc2)C(N)=O)C(C)(C)C)nn1` (stereo not given in full) [WO2022103411, Example S14], with 7.10.

In general, pIC50 refers to −log10 of the IC50, conventionally taken in molar units. Higher therefore signals a low IC50.
